# Laboratory results as given in patent US20230039836A1, “AROMATIC SULPHONAMIDES DERIVATIVES THAT INHIBITS PDI A3, THEIR SYNTHESIS AND USE” (Uniwersytet Jagiellonski, priority 2020, published 2023).
# Several values for one entry are separate records, joined by “and”; a condition that tells them apart may be missing. Equal values may be shown once. Read-outs that look alike come from different tables or passages of the source.
# Experiments:
# PDI A1 = target: T1, PDI A1 (Homo sapiens, UniProt P07237); assay: Insulin turbidometric assay, inhibition of PDI A1; type: biochemical; conditions: insulin reduction, turbidity at 650 nm, 60 min incubation at 37° C.; read-out: Inhibition of PDI A1 (EC 50)
# T1 construct: purchased Mybiosource; host or cells: E. coli
# T1 sequence (P07237 18-508, species assumed): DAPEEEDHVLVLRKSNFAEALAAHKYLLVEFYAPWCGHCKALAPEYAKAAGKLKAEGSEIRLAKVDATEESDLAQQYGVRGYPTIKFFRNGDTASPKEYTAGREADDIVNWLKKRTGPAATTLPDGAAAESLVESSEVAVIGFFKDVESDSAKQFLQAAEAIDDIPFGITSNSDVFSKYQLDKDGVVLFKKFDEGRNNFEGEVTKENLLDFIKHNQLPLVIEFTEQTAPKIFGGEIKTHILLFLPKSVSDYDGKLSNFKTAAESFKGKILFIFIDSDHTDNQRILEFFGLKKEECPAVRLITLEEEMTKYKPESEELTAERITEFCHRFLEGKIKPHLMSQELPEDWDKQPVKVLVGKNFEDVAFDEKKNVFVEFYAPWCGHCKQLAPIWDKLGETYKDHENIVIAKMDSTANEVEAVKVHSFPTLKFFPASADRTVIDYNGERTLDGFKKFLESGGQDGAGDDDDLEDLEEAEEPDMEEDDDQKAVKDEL
# Summary of the method: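 E. coli-expressed recombinant PDIA1 (10 ug/ml) preincubated with compound 60 min at 37 °C in phosphate buffer pH 7.6, 1 mM EDTA, DTT. Reaction started with insulin (0.15 mM final) and DTT (0.174 mM final). Insulin-reduction turbidity recorded at 650 nm over 120 s against PDI-free reference.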
# MCF-7 = assay: Sulforhodamine B antiproliferative assay, 72 h, normal and hypoxia; type: cell-based, human; conditions: Homo sapiens, MCF7, 72-hour exposition
# Description: (§1) Anticancer activity of PDI A1-inhibitors has been also tested in vitro in antiproliferative essay in normoxic and hypoxic conditions as well in estrogen-stimulated cancer cells. In the experiment, cells were seeded on 96-well plates (Sarstedt, Germany) in appropriate culture medium at a density of 10^5 cells/mL 24 h before adding the tested compounds. Cells were treated with each compound in four concentrations in the range 0.1-100 ug/mL. […] After 72 h of compound treatment at 37° C., 5 % CO2 humid atmosphere and in wo different oxygen level conditions: 21% - normal and <1% - hypoxia. In some experiments, the MDA-MB-231 and MCF-7 cells were seeded with or without 200 nM estradiol and after 24 h the tested compounds were added. A previously described sulforhodamine B antiproliferative assay was used with minor modifications (Skehan P et al., 1990). Briefly, cells were fixed with 50 µL/well of 50% (w/v) trichloroacetic acid (Avantor Performance Materials, Gliwice, Poland). After 1 h incubation, plates were washed several times with tap water and 50 µL of 0.4% (w/v) solution of sulforhodamine B (Sigma-Aldrich, Germany) in 1% (v/v) acetic acid (Avantor Performance Materials, Gliwice, Poland) was added to each well. After 30 min incubation at room temperature, unbound dye was washed out with 1% (v/v) acetic acid, whereas bound dye was solubilized with 10 mM unbuffered TRIS (Avantor Performance Materials, Gliwice, Poland) solution. The entire procedure was performed using a BioTek EL-406 washing station (BioTek Instruments, USA). After additional 30 min, absorbance was read using a Biotek Hybrid H4 reader (BioTek Instruments, USA) at 540 nm wavelength. MTT assay was used alternatively for HL-60 cell line and in the experiment in which estrogens are added (specified in the table legend). Absorbance was measured using a Biotek Hybrid H4 reader at 570 nm wavelength for MTT assay.
# (§2) Compounds at each concentration were tested in triplicate in a single experiment and each experiment was repeated at least three times independently.
# (§3) Results of in vitro antiproliferative effects are shown in Table 3 and Table 4 and are presented as mean IC50 ± SD calculated using the Prolab-3 system based on Cheburator 0.4 software.
# MDA-MB-231 = assay: as above; type: cell-based, human; conditions: Homo sapiens, MDA-MB-231, 72-hour exposition
# Description: as §1, §2, §3
# Caco-2 = assay: Sulforhodamine B antiproliferative assay, 72 h; type: cell-based, human; conditions: Homo sapiens, Caco-2; normal (21% of oxygen), 72-hour exposition
# Description: In the experiment, cells were seeded on 96-well plates (Sarstedt, Germany) in appropriate culture medium at a density of 10^5 cells/mL 24 h before adding the tested compounds. Cells were treated with each compound in four concentrations in the range 0.1-100 ug/mL. […] Briefly, cells were fixed with 50 µL/well of 50% (w/v) trichloroacetic acid (Avantor Performance Materials, Gliwice, Poland). After 1 h incubation, plates were washed several times with tap water and 50 µL of 0.4% (w/v) solution of sulforhodamine B (Sigma-Aldrich, Germany) in 1% (v/v) acetic acid (Avantor Performance Materials, Gliwice, Poland) was added to each well. After 30 min incubation at room temperature, unbound dye was washed out with 1% (v/v) acetic acid, whereas bound dye was solubilized with 10 mM unbuffered TRIS (Avantor Performance Materials, Gliwice, Poland) solution. […] After additional 30 min, absorbance was read using a Biotek Hybrid H4 reader (BioTek Instruments, USA) at 540 nm wavelength.
# HT-29 = assay: Sulforhodamine B antiproliferative assay, 72 h; type: cell-based, human; conditions: Homo sapiens, HT-29; normal (21% of oxygen), 72-hour exposition
# Description: as §1, §2, §3
# [1] = tested on: Lewis Lung Carcinoma (LLC); assay: Murine model of Lewis Lung Carcinoma; type: in vivo, mice; conditions: for Tumor volume average±stdev, day 10 / Tumor volume average±stdev, day 12 / Tumor volume average±stdev, day 14 / Tumor volume average±stdev, day 16 / Tumor volume average±stdev, day 17 / Individual tumor volumes, day 10 / Individual tumor volumes, day 12 / Individual tumor volumes, day 14 / Individual tumor volumes, day 16 / Individual tumor volumes, day 17: C57BL/6 mice, LLC s.c.; for Tumor volume average±stdev, day 10 / Tumor volume average±stdev, day 12 / Tumor volume average±stdev, day 14 / Tumor volume average±stdev, day 16 / Tumor volume average±stdev, day 17: 5 animals; for Individual tumor volumes, day 10 / Individual tumor volumes, day 12 / Individual tumor volumes, day 14 / Individual tumor volumes, day 16 / Individual tumor volumes, day 17: single animals; for Anti-cancer activity in vivo: LLC model, Tables 6 and 7
# Description: To confirm anticancer activity of selected compounds of invention, PDI A1-inhibitors in vivo, selected compounds of invention were tested in the murine model of Lewis Lung Carcinoma (LLC). The Lewis Lung Carcinoma (LLC) cell line was obtained from the ATCC collection and was cultured in a humidified atmosphere of 5% CO2 at 37° using Dulbecco’s modified Eagle’s medium (DMEM) that contained 10% bovine serum (Sigma). Female (6-8 weeks old) C57BL/6 mice (purchased from Envigo RMS. BV., Nederland) were acclimated for one week and were fed with animal chow and water ad libitum. The C57BL/6 mice were injected s.c. with 0.5 × 10^5 LLC cells per mice in 100 µL PBS. Compounds were dissolved in DMSO and then 0.9% NaCl (DMSO final concentration 1%) were added. In each treatment group, i.p. injections of 100 µl compound were started on 1 day after tumor inoculation. Control animals injected with equal volume of 0.9% NaCl with 1% DMSO administered in the same schedule as other groups. Tumor larger radius (a) and smaller radius (b) were measured by calipers. The tumor volume (Tv) was calculated according the following formulaTv = V=4 • ab2/3. The mice in control group were sacrificed 17 days after tumor establishment. Tumor tissues were dissected, weighed and frozen in OCT compound.
# [2] = tested on: arterial thrombosis, right common carotid artery; assay: Rat model of arterial thrombosis; type: in vivo; conditions: Wistar rats, FIG. 6, dose as low as
# Description: To confirm antithrombotic activity of compounds of invention, inhibitors of PDIA1, pharmacological activity of selected compounds was tested in vivo in the rat model of arterial thrombosis . Wistar rats were anaesthetized with pentobarbital (40 mg/kg, i.p.) and placed in a supine position on a heated (37° C.) operating table. Arterial thrombosis was induced by electrical stimulation of the right common carotid artery, as previously described (Kramkowski et al., 2012). Briefly, the anode, a stainless steel L-shaped wire, was inserted under the artery and connected to a constant current generator. The cathode was attached subcutaneously to the hind limb. The artery was stimulated (1 mA) for 10 min. Fifty-five minutes after the beginning of stimulation, the segment of the common carotid artery containing the formed thrombus was dissected and opened lengthwise, and the thrombus was completely removed and air-dried at room temperature for 24 h. Thrombus was then weighed in a blinded manner.
# [3] = hypoxia (<1% of oxygen), read-out: IC50 [µg/ml] MCF-7 hypoxia
# [4] = normal (21% of oxygen), read-out: IC50 [µg/ml] MCF-7 normal
# [5] = hypoxia (<1% of oxygen), read-out: IC50 [µg/ml] MDA-MB-231 hypoxia
# [6] = normal (21% of oxygen), read-out: IC50 [µg/ml] MDA-MB-231 normal
smiles,measurement,setting,value
"COC(=O)C1CN1S(=O)(=O)c1ccc(C)cc1 (stereo not drawn) [Compound C-3161, Methyl 1-(p-tolylsulfonyl)aziridine-2-carboxylate]",EC50,PDI A1,5 µM
same,IC50,MCF-7; [3],3.6 ± 0.3 µg/mL
same,IC50,MCF-7; [4],3.6 ± 0.3 µg/mL
same,IC50,MDA-MB-231; [5],11.3 ± 10.6 µg/mL
same,IC50,MDA-MB-231; [6],9.9 ± 8.2 µg/mL
same,IC50,Caco-2,3.5 ± 0.3 µg/mL
same,IC50,HT-29,28.4 ± 5 µg/mL
same,"Tumor volume average±stdev, day 10",[1]; 50 mg/kg i.p.,105±144 mm3
same,"Tumor volume average±stdev, day 12",[1]; 50 mg/kg i.p.,172±240 mm3
same,"Tumor volume average±stdev, day 14",[1]; 50 mg/kg i.p.,345±377 mm3
same,"Tumor volume average±stdev, day 16",[1]; 50 mg/kg i.p.,380±446 mm3
same,"Tumor volume average±stdev, day 17",[1]; 50 mg/kg i.p.,368±393 mm3
same,"Individual tumor volumes, day 10","[1]; 50 mg/kg i.p., 50 mg/kg",258 mm3 and 0 mm3 (3×) and 266 mm3
same,"Individual tumor volumes, day 12","[1]; 50 mg/kg i.p., 50 mg/kg",496 mm3 and 0 mm3 (3×) and 365 mm3
same,"Individual tumor volumes, day 14","[1]; 50 mg/kg i.p., 50 mg/kg",829 mm3 and 254 mm3 and 0 mm3 (2×) and 642 mm3
same,"Individual tumor volumes, day 16","[1]; 50 mg/kg i.p., 50 mg/kg",980 mm3 and 199 mm3 and 0 mm3 (2×) and 719 mm3
same,"Individual tumor volumes, day 17","[1]; 50 mg/kg i.p., 50 mg/kg",946 mm3 and 476 mm3 and 0 mm3 (2×) and 419 mm3
same,Anti-cancer activity in vivo,[1],possess anti-cancer activity in vivo
"CCCCc1ccc(S(=O)(=O)N2CC2C(=O)OC)cc1 (stereo not drawn) [Compound C-3257, Methyl 1-(4-butylphenyl)sulfonylaziridine-2-carboxylate]",IC50,MCF-7; [3],17.1 ± 7.4 µg/mL
same,IC50,MCF-7; [4],20.8 ± 6.6 µg/mL
same,IC50,MDA-MB-231; [5],13.5 ± 4 µg/mL
same,IC50,MDA-MB-231; [6],9.9 ± 2.8 µg/mL
same,IC50,Caco-2,9.8 ± 3.8 µg/mL
same,IC50,HT-29,23.8 ± 4.8 µg/mL
same,"Tumor volume average±stdev, day 10",[1]; 75 mg/kg i.p.,66±147 mm3
same,"Tumor volume average±stdev, day 12",[1]; 75 mg/kg i.p.,208±287 mm3
same,"Tumor volume average±stdev, day 14",[1]; 75 mg/kg i.p.,462±264 mm3
same,"Tumor volume average±stdev, day 16",[1]; 75 mg/kg i.p.,686±108 mm3
same,"Tumor volume average±stdev, day 17",[1]; 75 mg/kg i.p.,1097±482 mm3
same,"Individual tumor volumes, day 10","[1]; 75 mg/kg i.p., 75 mg/kg",0 mm3 (4×) and 329 mm3
same,"Individual tumor volumes, day 12","[1]; 75 mg/kg i.p., 75 mg/kg",572 mm3 and 0 mm3 (3×) and 468 mm3
same,"Individual tumor volumes, day 14","[1]; 75 mg/kg i.p., 75 mg/kg",594 mm3 and 0 mm3 and 537 mm3 and 657 mm3 and 523 mm3
same,"Individual tumor volumes, day 16","[1]; 75 mg/kg i.p., 75 mg/kg",794 mm3 and 548 mm3 and 601 mm3 and 772 mm3 and 717 mm3
same,"Individual tumor volumes, day 17","[1]; 75 mg/kg i.p., 75 mg/kg",674 mm3 and 882 mm3 and 1016 mm3 (2×) and 986 mm3
same,Anti-cancer activity in vivo,[1],possess anti-cancer activity in vivo
same,Dose at which effect on thrombus formation was significant and pronounced,[2],0.03 µmol/kg
